Experimental data as given in US9701628B2, “12-epi pleuromutilins” (NABRIVA THERAPEUTICS AG, priority 2014, dated 2017).
Converted amounts (≈) assume the structure as drawn. Where a name gives a salt, the structure may show the parent alone. Read-outs that look alike come from different tables or passages of the source.

Columns and labels:
[1] = test system: Escherichia coli ATCC25922; test: MIC by broth microdilution (CLSI) against Escherichia coli ATCC 25922; type: cell-based; conditions: Escherichia coli ATCC25922, in vitro
Experimental: (§1) The in vitro activity against aerobic bacteria was determined by Broth Microdilution Test according to the Clinical and Laboratory Standards Institute (CLSI, former NCCLS) Document M7-A9 Vol 32, No 2 “Methods for Dilution Antimicrobial Susceptibility Tests for Bacteria that Grow Aerobically; Approved Standard—Ninth Edition (2012)”; and the test against anaerobic bacteria was performed by Agar Dilution Test according to the Clinical and Laboratory Standards Institute (CLSI, former NCCLS), Document, M11-A8, Vol. 32, No. 5: “Methods for Antimicrobial Susceptibility Testing of Anaerobic Bacteria; Approved Standard—Eighth Edition (2012)”. Performance standards and interpretive criteria followed the CLSI Document, M100-S23: “Performance Standards for Antimicrobial Susceptibility Testing; Twenty-Third Informational Supplement” (2013). The in vivo activity was tested by the septicaemia mouse model against Staphylococcus aureus and Escherichia coli.
(§2) The antibacterial activity expressed as minimal inhibitory concentration (MIC) was determined according to the approved standard reference recommendations of CLSI (former NCCLS) as described in the description of the application.

[2] = test system: Staphylococcus aureus ATCC 49951; test: MIC by broth microdilution (CLSI) against Staphylococcus aureus ATCC 49951; type: cell-based; conditions: Staphylococcus aureus ATCC 49951, in vitro
Experimental: as §1, §2

Compound | MIC [1] [µg/mL] | MIC [2] | MIC ([1]; read-out: MIC) [µg/mL] | MIC ([2]; ATCC49951, read-out: MIC) [µg/mL]
12-epi-12-desvinyl-14-O-{[1-(2-Amino-acetyl)-piperidin-4-yl-methylsulfanyl]-acetyl}-12-[(4-aminomethyl-phenylamino)-methyl] mutilin trihydrochloride [Example 81] | 8 | 0.125 µg/mL |  | 
C=C[C@]1(C)C[C@@H](OC(=O)CSC(C)(C)CNC(=O)[C@H](N)C(C)C)[C@]2(C)[C@H](C)CC[C@]3(CCC(=O)[C@H]32)[C@@H](C)[C@@H]1O [Econor, econor, reference compound] | 32 (≈ 56.7 µM) | ≦0.03 μg/mL |  | 
C[C@@H]1CC[C@@]23CCC(=O)[C@H]2[C@]1(C)[C@H](OC(=O)CSc1ccc(CC(=O)NCCCN)cc1)C[C@](C)(CNCCCN)[C@@H](O)[C@@H]3C [Example 1, 12-epi-12-desvinyl-14-O-{{4-[(3-Amino-propylcarbamoyl)-methyl]-phenylsulfanyl}-acetyl}-12-[(3-amino-propylamino)-methyl] mutilin trihydrochloride] |  |  | 0.5 | ≤ 0.03
CC1C(O)C(C)(CNCc2ccc(CN)cc2)CC(OC(=O)CSc2ccc(CC(=O)NCCCN)cc2)C2(C)C(C)CCC13CCC(=O)C32.Cl.Cl.Cl (stereo not drawn) [Example 9, 12-epi-12-desvinyl-14-O-{{4-[(3-Amino-propylcarbamoyl)-methyl]-phenylsulfanyl}-acetyl}-12-[(4-aminomethyl-benzylamino)-methyl] mutilin trihydrochloride] | 0.5 | ≦0.03 μg/mL |  | 
CC1C(O)C(C)(CNCCCCCCNC(=N)N)CC(OC(=O)CSc2ccc(CC(=O)NCCCN)cc2)C2(C)C(C)CCC13CCC(=O)C32.Cl.Cl.Cl (stereo not drawn) [Example 11, 12-epi-12-desvinyl-14-O-{{4-[(3-Amino-propylcarbamoyl)-methyl]-phenylsulfanyl}-acetyl}-12-[(6-guanidino-hexylamino)-methyl] mutilin trihydrochloride] | 0.25 | ≦0.03 μg/mL |  | 
C[C@@H]1CC[C@@]23CCC(=O)[C@H]2[C@]1(C)[C@H](OC(=O)CSc1ccc(C(=O)NCc2ccc(CN)cc2)cc1)C[C@](C)(CNCCCCCCN)[C@@H](O)[C@@H]3C [Example 23, 12-epi-12-desvinyl-14-O-{[4-(4-Aminomethyl-benzylcarbamoyl)-phenylsulfanyl]-acetyl}-12-[(6-amino-hexylamino)-methyl] mutilin trihydrochloride] |  |  | 1 | ≤ 0.03
C[C@@H]1CC[C@@]23CCC(=O)[C@H]2[C@]1(C)[C@H](OC(=O)CSC1CCC(CN)CC1)C[C@](C)(CNCCCCCCN)[C@@H](O)[C@@H]3C (stereo partly drawn) [Example 47, 12-epi-12-desvinyl-14-O-{[(4-Aminomethyl-cyclohexyl)-sulfanyl]-acetyl}-12-[(6-amino-hexylamino)-methyl] mutilin trihydrochloride] |  |  | 0.5 | ≤ 0.03
C[C@@H]1CC[C@@]23CCC(=O)[C@H]2[C@]1(C)[C@H](OC(=O)CSc1ccc(CCCN)cc1)C[C@](C)(CNCCCCCCN)[C@@H](O)[C@@H]3C [Example 48, 12-epi-12-desvinyl-14-O-{[4-(3-Amino-propyl)-phenylsulfanyl]-acetyl}-12-[(6-amino-hexylamino)-methyl] mutilin trihydrochloride] |  |  | 0.25 | ≤ 0.03
C[C@@H]1CC[C@@]23CCC(=O)[C@H]2[C@]1(C)[C@H](OC(=O)CSc1ccc(CC(=O)NCCCN)cc1)C[C@](C)(CCNCCCN)[C@@H](O)[C@@H]3C [Example 52, 12-epi-12-desvinyl-14-O-{{4-[(3-Amino-propylcarbamoyl)-methyl]-phenylsulfanyl}-acetyl}-12-[2-(3-amino-propylamino)-ethyl] mutilin trihydrochloride] |  |  | 0.5 | ≤ 0.03
CC1C(O)C(C)(CNCCCCCCN)CC(OC(=O)CSc2cccc(CO)c2)C2(C)C(C)CCC13CCC(=O)C32.Cl.Cl (stereo not drawn) [Example 54, 12-epi-12-desvinyl-14-O-[(3-Hydroxymethyl-phenylsulfanyl)-acetyl]-12-[(6-amino-hexylamino)-methyl] mutilin dihydrochloride] | 4 | 0.125 µg/mL |  | 
C[C@@H]1CC[C@@]23CCC(=O)[C@H]2[C@]1(C)[C@H](OC(=O)CS[C@@H]1CC[C@@H](N)C[C@H]1O)C[C@](C)(CNCCCN)[C@@H](O)[C@@H]3C.Cl.Cl.Cl [Example 62, 12-epi-12-desvinyl-14-O-{[(1R,2R,4R)-4-Amino-2-hydroxy-cyclohexylsulfanyl]-acetyl}-12-[(3-amino-propylamino)-methyl] mutilin trihydrochloride] | 4 | 0.25 µg/mL |  | 
CC1C(O)C(C)(CNCc2ccc(CN)cc2)CC(OC(=O)CSCCO)C2(C)C(C)CCC13CCC(=O)C32.Cl.Cl (stereo not drawn) [Example 64, 12-epi-12-desvinyl-14-O-[(2-Hydroxy-ethylsulfanyl)-acetyl]-12-[(4-aminomethyl-benzylamino)-methyl] mutilin dihydrochloride] | 4 | 0.5 µg/mL |  | 
CC1C(O)C(C)(CNCc2ccc(CN)cc2)CC(OC(=O)CSCCN)C2(C)C(C)CCC13CCC(=O)C32.Cl.Cl.Cl (stereo not drawn) [Example 65, 12-epi-12-desvinyl-14-O-[(2-Amino-ethylsulfanyl)-acetyl]-12-[(4-aminomethyl-benzylamino)-methyl] mutilin trihydrochloride] | 2 | 0.5 µg/mL |  | 
C[C@@H]1CC[C@@]23CCC(=O)[C@H]2[C@]1(C)[C@H](OC(=O)CSc1nnc(N)[nH]1)C[C@](C)(CNCCCCCCN)[C@@H](O)[C@@H]3C.Cl.Cl.Cl [Example 66, 12-epi-12-desvinyl-14-O-{[(5-Amino-4H-1,2,4-triazol-3-yl)-sulfanyl]-acetyl}-12-[(6-amino-hexylamino)-methyl] mutilin trihydrochloride] | 4 | 0.5 µg/mL |  | 
CC1C(O)C(C)(CNCCCCCCN)CC(OC(=O)CSc2ccncc2)C2(C)C(C)CCC13CCC(=O)C32.Cl.Cl.Cl (stereo not drawn) [Example 68, 12-epi-12-desvinyl-14-O-[(Pyridin-4-ylsulfanyl)-acetyl]-12-[(6-amino-hexylamino)-methyl] mutilin trihydrochloride] | 4 | 0.25 µg/mL |  | 
C[C@@H]1CC[C@@]23CCC(=O)[C@H]2[C@]1(C)[C@H](OC(=O)CSC1CCN(C(=O)CN)CC1)C[C@](C)(CNCc1ccc(CN)cc1)[C@@H](O)[C@@H]3C [Example 78, 12-epi-12-desvinyl-14-O-{[1-(2-Amino-acetyl)-piperidin-4-yl-sulfanyl)]-acetyl}-12-[(4-aminomethyl-benzylamino)-methyl] mutilin trihydrochloride] |  |  | 2 | 0.5
C[C@@H]1CC[C@@]23CCC(=O)[C@H]2[C@]1(C)[C@H](OC(=O)CSC1CCN(C(=O)CN)CC1)C[C@](C)(CNCc1ccc(OCCN)cc1)[C@@H](O)[C@@H]3C [Example 83, 12-epi-12-desvinyl-14-O-{[1-(2-Amino-acetyl)-piperidin-4-yl-sulfanyl]-acetyl}-12{2-[4-(2-amino-ethoxy)-benzylamino]-methyl} mutilin trihydrochloride] |  |  | 1 | 0.25
